Test results taken from article PMC12677699, “Utilizing Proteolytic‐Resistant Nano‐Short Peptide Based on Naphthyl Tail‐Anchored to Combat Bacterial Infections” (Advanced Science, 2025).
≈ marks a conversion by molar mass, not a printed value. Non-standard residues stand in square brackets, D forms with d. Residues, ends and D or L forms follow the SMILES beside them. *: point of attachment. Palmitoyl = CCCCCCCCCCCCCCCC(=O)*; Myristoyl = CCCCCCCCCCCCCC(=O)*

What was measured:
P. aeruginosa 25349 = assay: MIC against clinical strain; assay type: cell-based; conditions: Pseudomonas aeruginosa, 25349, read-out: MIC, P. aeruginosa 25349
Procedure: (§1) The MIC values of the nano‐short peptides were determined according to standard protocols.^[ [63] ^] Bacterial strains were revived from cryopreservation and cultured in Mueller–Hinton broth (MHB) to logarithmic growth phase, then diluted to a final density of 0.5–1 × 10⁶ CFU mL^−1. Serial dilutions of the nano‐short peptides were prepared in 0.2% bovine serum albumin (BSA) using a 96‐well plate format. Equal volumes of peptide solutions and bacterial suspensions were combined and incubated at 37 °C for 20–22 h. Bacterial growth was assessed by measuring absorbance at 492 nm, with MHB alone (negative control) and untreated bacterial suspension (positive control) included for reference.

A. baumannii AB1902 = assay: MIC against clinical strain; assay type: cell-based; conditions: Acinetobacter baumannii, AB1902, read-out: MIC, A. baumannii AB1902
Procedure: as §1

S. aureus 11011 = assay: MIC against clinical strain; assay type: cell-based; conditions: Staphylococcus aureus, 11011, read-out: MIC, S. aureus 11011
Procedure: as §1

A. baumannii AB1901 = assay: MIC against clinical strain; assay type: cell-based; conditions: Acinetobacter baumannii, AB1901, read-out: MIC, A. baumannii AB1901
Procedure: as §1

P. aeruginosa PAO1 = assay type: cell-based, Pseudomonas aeruginosa
Procedure: as §1

P. aeruginosa 27853 = assay type: cell-based, Pseudomonas aeruginosa
Procedure: as §1

MRSA 43300 = assay type: cell-based, Methicillin-Resistant Staphylococcus aureus
Procedure: as §1

E. coli 25922 = assay type: cell-based, Escherichia coli
Procedure: as §1

E. coli UB1005 = assay type: cell-based, Escherichia coli
Procedure: as §1

E. coli 078 = assay type: cell-based, Escherichia coli
Procedure: as §1

S. pullorum C7913 = assay type: cell-based
Procedure: as §1

E. faecalis 29212 = assay type: cell-based, Enterococcus faecalis
Procedure: as §1

S. epidermidis 12228 = assay type: cell-based, Staphylococcus epidermidis
Procedure: as §1

S. typhimurium 14028 = assay type: cell-based, Salmonella typhimurium
Procedure: as §1

S. typhimurium 7731 = assay type: cell-based, Salmonella typhimurium
Procedure: as §1

S. aureus 25923 = assay type: cell-based, Staphylococcus aureus
Procedure: as §1

S. aureus 29213 = assay type: cell-based, Staphylococcus aureus
Procedure: as §1

MIC, P. aeruginosa PAO1 (P. aeruginosa PAO1) [µM] | MIC, P. aeruginosa 27853 (P. aeruginosa 27853) [µM] | MIC, MRSA 43300 (MRSA 43300) [µM] | MIC, E. coli 25922 (E. coli 25922) [µM] | MIC, E. coli UB1005 (E. coli UB1005) [µM] | MIC, E. coli 078 (E. coli 078) [µM] | MIC, S. pullorum C7913 (S. pullorum C7913) [µM] | MIC, E. faecalis 29212 (E. faecalis 29212) [µM] | MIC, S. epidermidis 12228 (S. epidermidis 12228) [µM] | MIC, S. typhimurium 14028 (S. typhimurium 14028) [µM] | MIC, S. typhimurium 7731 (S. typhimurium 7731) [µM] | MIC, S. aureus 25923 (S. aureus 25923) [µM] | MIC, S. aureus 29213 (S. aureus 29213) [µM] | SMILES | MIC (P. aeruginosa 25349) [µM] | MIC (A. baumannii AB1902) [µM] | MIC (S. aureus 11011) [µM] | MIC (A. baumannii AB1901) [µM]
– | – | – | – | – | – | – | – | – | – | – | – | – | CC1(C)S[C@@H]2[C@H](NC(=O)Cc3ccccc3)C(=O)N2[C@H]1C(=O)O [Penicillin sodium] | 128 | 128 | 128 | 128
– | – | – | – | – | – | – | – | – | – | – | – | – | CN[C@H](CC(C)C)C(=O)N[C@H]1C(=O)N[C@@H](CC(N)=O)C(=O)N[C@H]2C(=O)N[C@H]3C(=O)N[C@H](C(=O)N[C@H](C(=O)O)c4cc(O)cc(O)c4-c4cc3ccc4O)[C@H](O)c3ccc(c(Cl)c3)Oc3cc2cc(c3O[C@@H]2O[C@H](CO)[C@@H](O)[C@H](O)[C@H]2O[C@H]2C[C@](C)(N)[C@H](O)[C@H](C)O2)Oc2ccc(cc2Cl)[C@H]1O [Vancomycin] | 128 (≈ 186 µg/mL) | 128 (≈ 186 µg/mL) | 128 (≈ 186 µg/mL) | 1 (≈ 1.45 µg/mL)
256 (≈ 204 µg/mL) | 256 (≈ 204 µg/mL) | 256 (≈ 204 µg/mL) | 256 (≈ 204 µg/mL) | 256 (≈ 204 µg/mL) | 256 (≈ 204 µg/mL) | 256 (≈ 204 µg/mL) | 256 (≈ 204 µg/mL) | 256 (≈ 204 µg/mL) | 256 (≈ 204 µg/mL) | 256 (≈ 204 µg/mL) | 256 (≈ 204 µg/mL) | 256 (≈ 204 µg/mL) | C[C@H](N)C(=O)N[C@@H](C)C(=O)N[C@@H](C)C(=O)N[C@H](CCCNC(=N)N)C(=O)N[C@@H](CCCNC(=N)N)C(=O)N[C@@H](CCCNC(=N)N)C(=O)N1CCC[C@H]1C(=O)O [Peptide A3] (H-AAA[dR]RRP-OH) | – | – | – | –
– | – | – | – | – | – | – | – | – | – | – | – | – | CC1COc2c(N3CCN(C)CC3)c(F)cc3c(=O)c(C(=O)O)cn1c23 (stereo not shown) [Ofloxacin] | 2 (≈ 0.723 µg/mL) | 128 (≈ 46.3 µg/mL) | 128 (≈ 46.3 µg/mL) | 1 (≈ 0.361 µg/mL)
32 (≈ 26.3 µg/mL) | – | 32 (≈ 26.3 µg/mL) | – | – | – | 256 (≈ 210 µg/mL) | 32 (≈ 26.3 µg/mL) | 32 (≈ 26.3 µg/mL) | – | – | 32 (≈ 26.3 µg/mL) | 32 (≈ 26.3 µg/mL) | CCCCCCCCCCCCCCCC(=O)N[C@H](CCCNC(=N)N)C(=O)N[C@@H](CCCNC(=N)N)C(=O)N[C@@H](CCCNC(=N)N)C(=O)N1CCC[C@H]1C(=O)O [Peptide C16] (Palmitoyl-[dR]RRP-OH) | – | – | – | –
– | – | – | – | – | – | – | – | – | – | – | – | – | CC[C@H]1OC(=O)[C@H](C)[C@@H](O[C@H]2C[C@@](C)(OC)[C@@H](O)[C@H](C)O2)[C@H](C)[C@@H](O[C@@H]2O[C@H](C)C[C@H](N(C)C)[C@H]2O)[C@](C)(O)C[C@@H](C)C(=O)[C@H](C)[C@@H](O)[C@]1(C)O [Erythromycin] | 128 (≈ 93.9 µg/mL) | 128 (≈ 93.9 µg/mL) | 128 (≈ 93.9 µg/mL) | 64 (≈ 47 µg/mL)
32 (≈ 25.4 µg/mL) | 64 (≈ 50.8 µg/mL) | 16 (≈ 12.7 µg/mL) | 64 (≈ 50.8 µg/mL) | 128 (≈ 102 µg/mL) | 64 (≈ 50.8 µg/mL) | 64 (≈ 50.8 µg/mL) | 32 (≈ 25.4 µg/mL) | 32 (≈ 25.4 µg/mL) | 128 (≈ 102 µg/mL) | 64 (≈ 50.8 µg/mL) | 32 (≈ 25.4 µg/mL) | 32 (≈ 25.4 µg/mL) | CCCCCCCCCCCCCC(=O)N[C@H](CCCNC(=N)N)C(=O)N[C@@H](CCCNC(=N)N)C(=O)N[C@@H](CCCNC(=N)N)C(=O)N1CCC[C@H]1C(=O)O [Peptide C14] (Myristoyl-[dR]RRP-OH) | – | – | – | –
